# According to patent publication US10206399B2, “Herbicidal composition comprising uracil compound as active ingredient” (Dongbu Farm Hannong Co., Ltd., priority 2012, dated 2019):
# Like-named read-outs stand apart in the source and are kept apart here.
# Tests used:
# Digitaria sanguinalis = conditions: for Digitaria sanguinalis mortality, measured value: 20 days after treatment; for plant mortality, measured value: Digitaria sanguinalis
# Source text: (§1) X is % damage by uracil compound (a) of formula 1 at the rate of application of p kg/ha; Y is % damage by conventional herbicidal compound (b) at the rate of application of q kg/ha; and E is the expected damage caused by compounds (a) and (b) at a rate of application of p and q kg/ha.
# (§2) The expected activity for a given combination of two herbicides can be calculated using equation 1 above.
# Echinochloa crus = conditions: for Echinochloa crus mortality, measured value: 20 days after treatment; for plant mortality, measured value: Echinochloa crus
# Source text: as §1, §2
# Xanthium spinosum = test: whole plant or invertebrate; conditions: for pest or weed control at 150 g/ha: read-out: plant mortality, measured value, 150 g/ha; for pest or weed control at 300 g/ha: read-out: plant mortality, measured value, 300 g/ha
# Source text: as §1, §2
# Aeschynomene indica = test: whole plant or invertebrate; conditions: for pest or weed control at 150 g/ha: read-out: plant mortality, measured value, 150 g/ha; for pest or weed control at 300 g/ha: read-out: plant mortality, measured value, 300 g/ha
# Source text: as §1, §2
# Abutilon theophrasti = test: whole plant or invertebrate; conditions: for pest or weed control at 150 g/ha: read-out: plant mortality, measured value, 150 g/ha; for pest or weed control at 300 g/ha: read-out: plant mortality, measured value, 300 g/ha
# Source text: as §1, §2
# [1] = 480 h, read-out: Xanthium spinosum mortality, measured value
# [2] = read-out: plant mortality, measured value, 75 g/ha
# [3] = 480 h, read-out: Aeschynomene indica mortality, measured value
# [4] = 480 h, read-out: Abutilon theophrasti mortality, measured value
# [5] = read-out: plant mortality, measured value, 600 g/ha
smiles,measurement,setting,value
"CP(=O)(O)CCC(N)C(=O)O (stereo not drawn) [Glufosinate, reference compound]","Digitaria sanguinalis mortality, measured value",Digitaria sanguinalis; 75 g/ha,11%
same,"plant mortality, measured value",Digitaria sanguinalis; 75 g/ha,11
same,"Digitaria sanguinalis mortality, measured value",Digitaria sanguinalis; 150 g/ha,27%
same,"plant mortality, measured value",Digitaria sanguinalis; 150 g/ha,27
same,"Digitaria sanguinalis mortality, measured value",Digitaria sanguinalis; 300 g/ha,57%
same,"plant mortality, measured value",Digitaria sanguinalis; 300 g/ha,57
same,"Echinochloa crus mortality, measured value",Echinochloa crus; 75 g/ha,15%
same,"plant mortality, measured value",Echinochloa crus; 75 g/ha,15
same,"Echinochloa crus mortality, measured value",Echinochloa crus; 150 g/ha,29%
same,"plant mortality, measured value",Echinochloa crus; 150 g/ha,29
same,"Echinochloa crus mortality, measured value",Echinochloa crus; 300 g/ha,60%
same,"plant mortality, measured value",Echinochloa crus; 300 g/ha,60
same,mortality at 75 g/ha,Xanthium spinosum; [1],13%
same,mortality at 150 g/ha,Xanthium spinosum; [1],25%
same,mortality at 300 g/ha,Xanthium spinosum; [1],56%
same,pest or weed control at 75 g/ha,Xanthium spinosum; [2],13%
same,pest or weed control at 150 g/ha,Xanthium spinosum,25%
same,pest or weed control at 300 g/ha,Xanthium spinosum,56%
same,mortality at 75 g/ha,Aeschynomene indica; [3],5%
same,mortality at 150 g/ha,Aeschynomene indica; [3],18%
same,mortality at 300 g/ha,Aeschynomene indica; [3],46%
same,pest or weed control at 75 g/ha,Aeschynomene indica; [2],5%
same,pest or weed control at 150 g/ha,Aeschynomene indica,18%
same,pest or weed control at 300 g/ha,Aeschynomene indica,46%
same,mortality at 75 g/ha,Abutilon theophrasti; [4],7%
same,mortality at 150 g/ha,Abutilon theophrasti; [4],25%
same,mortality at 300 g/ha,Abutilon theophrasti; [4],49%
same,pest or weed control at 75 g/ha,Abutilon theophrasti; [2],7%
same,pest or weed control at 150 g/ha,Abutilon theophrasti,25%
same,pest or weed control at 300 g/ha,Abutilon theophrasti,49%
"O=C(O)CNCP(=O)(O)O [Glyphosate, reference compound]","Digitaria sanguinalis mortality, measured value",Digitaria sanguinalis; 150 g/ha,8%
same,"plant mortality, measured value",Digitaria sanguinalis; 150 g/ha,8
same,"Digitaria sanguinalis mortality, measured value",Digitaria sanguinalis; 300 g/ha,18%
same,"plant mortality, measured value",Digitaria sanguinalis; 300 g/ha,18
same,"Digitaria sanguinalis mortality, measured value",Digitaria sanguinalis; 600 g/ha,46%
same,"plant mortality, measured value",Digitaria sanguinalis; 600 g/ha,46
same,"Echinochloa crus mortality, measured value",Echinochloa crus; 150 g/ha,12%
same,"plant mortality, measured value",Echinochloa crus; 150 g/ha,12
same,"Echinochloa crus mortality, measured value",Echinochloa crus; 300 g/ha,23%
same,"plant mortality, measured value",Echinochloa crus; 300 g/ha,23
same,"Echinochloa crus mortality, measured value",Echinochloa crus; 600 g/ha,48%
same,"plant mortality, measured value",Echinochloa crus; 600 g/ha,48
same,mortality at 150 g/ha,Xanthium spinosum; [1],11%
same,mortality at 300 g/ha,Xanthium spinosum; [1],30%
same,mortality at 600 g/ha,Xanthium spinosum; [1],64%
same,pest or weed control at 150 g/ha,Xanthium spinosum,11%
same,pest or weed control at 300 g/ha,Xanthium spinosum,30%
same,pest or weed control at 600 g/ha,Xanthium spinosum; [5],64%
same,mortality at 150 g/ha,Aeschynomene indica; [3],9%
same,mortality at 300 g/ha,Aeschynomene indica; [3],22%
same,mortality at 600 g/ha,Aeschynomene indica; [3],47%
same,pest or weed control at 150 g/ha,Aeschynomene indica,9%
same,pest or weed control at 300 g/ha,Aeschynomene indica,22%
same,pest or weed control at 600 g/ha,Aeschynomene indica; [5],47%
same,mortality at 150 g/ha,Abutilon theophrasti; [4],8%
same,mortality at 300 g/ha,Abutilon theophrasti; [4],27%
same,mortality at 600 g/ha,Abutilon theophrasti; [4],59%
same,pest or weed control at 150 g/ha,Abutilon theophrasti,8%
same,pest or weed control at 300 g/ha,Abutilon theophrasti,27%
same,pest or weed control at 600 g/ha,Abutilon theophrasti; [5],59%
"CC(Oc1ccc(Oc2ncc(C(F)(F)F)cc2Cl)cc1)C(=O)O (stereo not drawn) [Haloxyfop, reference compound]","Digitaria sanguinalis mortality, measured value",Digitaria sanguinalis; 12.5 g/ha,14%
same,"Digitaria sanguinalis mortality, measured value",Digitaria sanguinalis; 25 g/ha,29%
same,"Digitaria sanguinalis mortality, measured value",Digitaria sanguinalis; 50 g/ha,57%
same,"Echinochloa crus mortality, measured value",Echinochloa crus; 12.5 g/ha,11%
same,"Echinochloa crus mortality, measured value",Echinochloa crus; 25 g/ha,28%
same,"Echinochloa crus mortality, measured value",Echinochloa crus; 50 g/ha,58%
same,mortality at 12.5 g/ha,Xanthium spinosum; [1],0%
same,mortality at 25 g/ha,Xanthium spinosum; [1],0%
same,mortality at 50 g/ha,Xanthium spinosum; [1],0%
same,mortality at 12.5 g/ha,Aeschynomene indica; [3],0%
same,mortality at 25 g/ha,Aeschynomene indica; [3],0%
same,mortality at 50 g/ha,Aeschynomene indica; [3],0%
same,mortality at 12.5 g/ha,Abutilon theophrasti; [4],0%
same,mortality at 25 g/ha,Abutilon theophrasti; [4],0%
same,mortality at 50 g/ha,Abutilon theophrasti; [4],0%
CCc1cnc(C2=NC(C)(C(C)C)C(=O)N2)c(C(=O)O)c1 (stereo not drawn) [Imazethapyr],Data (measured value) Digitaria sanguinalis,Digitaria sanguinalis; 25 g/ha,11
same,Data (measured value) Digitaria sanguinalis,Digitaria sanguinalis; 50 g/ha,26
same,Data (measured value) Digitaria sanguinalis,Digitaria sanguinalis; 100 g/ha,62
same,Data (measured value) Echinochloa crus,Echinochloa crus; 25 g/ha,11
same,Data (measured value) Echinochloa crus,Echinochloa crus; 50 g/ha,26
same,Data (measured value) Echinochloa crus,Echinochloa crus; 100 g/ha,53
same,pest or weed control at 25 g/ha,"Xanthium spinosum; read-out: Data (measured value) Xanthium spinosum, 25 g/ha",9%
same,pest or weed control at 50 g/ha,"Xanthium spinosum; read-out: Data (measured value) Xanthium spinosum, 50 g/ha",20%
same,pest or weed control at 100 g/ha,"Xanthium spinosum; read-out: Data (measured value) Xanthium spinosum, 100 g/ha",47%
same,pest or weed control at 25 g/ha,"Aeschynomene indica; read-out: Data (measured value) Aeschynomene indica, 25 g/ha",11%
same,pest or weed control at 50 g/ha,"Aeschynomene indica; read-out: Data (measured value) Aeschynomene indica, 50 g/ha",25%
same,pest or weed control at 100 g/ha,"Aeschynomene indica; read-out: Data (measured value) Aeschynomene indica, 100 g/ha",54%
same,pest or weed control at 25 g/ha,"Abutilon theophrasti; read-out: Data (measured value) Abutilon theophrasti, 25 g/ha",9%
same,pest or weed control at 50 g/ha,"Abutilon theophrasti; read-out: Data (measured value) Abutilon theophrasti, 50 g/ha",24%
same,pest or weed control at 100 g/ha,"Abutilon theophrasti; read-out: Data (measured value) Abutilon theophrasti, 100 g/ha",58%
